Laboratory results: patent US9573954B2, “Pyrazolopyrimidine compounds” (University Health Network, priority 2012, dated 2017)
Where two headings read alike, the source gives them in different places.

Assays:
[1] = system: ovarian cancer cells (PA-1); assay: Cancer cell line growth inhibition, Sulforhodamine B assay, PA-1; format: cell-based; conditions: 120 h, PA-1, 5 days, SRB, read-out: Cancer Cell Line GI50 Range PA-1
Procedure: (§1) Breast cancer cells (MDA-MB-231 and MDA-MB-468), colon cancer cells (HCT116) and ovarian cancer cells (PA-1 and OVCAR-3) were seeded (1000 to 4000 in 80 μl per well depending on the cell growth rate) into 96 well plates 24 hours before compound overlay. Compounds were prepared as 10 mM stock solutions in 100% DMSO which were diluted with DMEM (Dulbecco's Modified Eagle's Medium) cell growth Medium (Invitrogen, Burlington, ON, Canada) containing 10% FBS (Fetal Bovine Serum) to concentrations ranging from 50 nM to 250 μM. Aliquots (20 μl) from each concentration were overlaid to 80 μl of the pre-seeded cells in the 96 well plates to make final concentrations of 10 nM to 50 μM. The cells were cultured for 5 days before the Sulforhodamine B assay (SRB) was performed to determine the compound's cell growth inhibition activity.
(§2) Sulforhodamine B (purchased from Sigma, Oakville, ON, Canada) is a water-soluble dye that binds to the basic amino acids of the cellular proteins. Thus, colorimetric measurement of the bound dye provides an estimate of the total protein mass that is related to the cell number. the cells are fixed in situ by gently aspirating off the culture media and adding 50 μl ice cold 10% Trichloroacetic Acid (TCA) per well and incubate at 4° C. for 30-60 min, The plates are washed with H2O five times and allowed to air dry for 5 min. Addition of 50 μl 0.4% (w/v) SRB solution in 1% (v/v) acetic acid to each well and incubation for 30 min at RT completes the staining reaction. Following staining, plates are washed four times with 1% acetic acid to remove unbound dye and then allowed to air dry for 5 min. The stain is solubilized with 100 μl of 10 mM Tris pH 10.5 per well. Absorbance is read at 570 nm.
(§3) The percentage (%) of relative growth inhibition was calculated by comparing to DMSO treated only cells (100%). GI50's were determined for compounds with cytotoxic activity. The GI50 was calculated using GraphPad PRISM software (GraphPad Software, Inc., San Diego, Calif., USA).
In Table 1 below, GI50 value ranges for compound examples against breast cancer cell lines (MDA-MB-468), colon cancer cell lines (HCT116) and ovarian cancer cell lines (PA-1) are given.
(§4) In Table 2 below, GI50 value ranges for compound examples against breast cancer cell lines (MDA-MB-231), colon cancer cell lines (HCT116) and ovarian cancer cell lines (PA-1) are given.

[2] = system: breast cancer cells (MDA-MB-468); assay: Cancer cell line growth inhibition, Sulforhodamine B assay, MDA-MB-468; format: cell-based; conditions: Homo sapiens, MDA-MB-468, 120 h, Table 1; MDA-MB-468, 5 days, SRB; read-out: Cancer Cell Line GI50 Range MDA-MB-468
In short: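 Sulforhodamine B staining (TCA-fixed, read at 570 nm) estimates cell mass after 5-day compound treatment of MDA-MB-468 cells, final concentrations 10 nM to 50 μM in 10% FBS DMEM. GI50 derived from growth inhibition versus DMSO controls.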

[3] = system: colon cancer cells (HCT116); assay: Cancer cell line growth inhibition, Sulforhodamine B assay, HCT116; format: cell-based; conditions: Homo sapiens, HCT-116, 120 h, HCT116, 5 days, SRB, read-out: Cancer Cell Line GI50 Range HCT116
In short: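 GI50 is calculated from growth inhibition relative to DMSO controls, using TCA-fixed, SRB-stained protein mass read at 570 nm. Compound, 10 nM–50 μM final in 10% FBS DMEM, was applied for 5 days to HCT116 cells that had been plated 24 h before at 1000–4000/well.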

human TTK = molecular target: T1, human TTK (Homo sapiens, UniProt P33981); assay: TTK inhibition assay (indirect ELISA); format: biochemical; conditions: 16 μM ATP (asterisk), read-out: TTK IC50 Range
T1 construct: Active TTK was purchased from Invitrogen as an amino terminal GST fusion of full length human TTK; purchased Invitrogen
T1 sequence (P33981 1-857): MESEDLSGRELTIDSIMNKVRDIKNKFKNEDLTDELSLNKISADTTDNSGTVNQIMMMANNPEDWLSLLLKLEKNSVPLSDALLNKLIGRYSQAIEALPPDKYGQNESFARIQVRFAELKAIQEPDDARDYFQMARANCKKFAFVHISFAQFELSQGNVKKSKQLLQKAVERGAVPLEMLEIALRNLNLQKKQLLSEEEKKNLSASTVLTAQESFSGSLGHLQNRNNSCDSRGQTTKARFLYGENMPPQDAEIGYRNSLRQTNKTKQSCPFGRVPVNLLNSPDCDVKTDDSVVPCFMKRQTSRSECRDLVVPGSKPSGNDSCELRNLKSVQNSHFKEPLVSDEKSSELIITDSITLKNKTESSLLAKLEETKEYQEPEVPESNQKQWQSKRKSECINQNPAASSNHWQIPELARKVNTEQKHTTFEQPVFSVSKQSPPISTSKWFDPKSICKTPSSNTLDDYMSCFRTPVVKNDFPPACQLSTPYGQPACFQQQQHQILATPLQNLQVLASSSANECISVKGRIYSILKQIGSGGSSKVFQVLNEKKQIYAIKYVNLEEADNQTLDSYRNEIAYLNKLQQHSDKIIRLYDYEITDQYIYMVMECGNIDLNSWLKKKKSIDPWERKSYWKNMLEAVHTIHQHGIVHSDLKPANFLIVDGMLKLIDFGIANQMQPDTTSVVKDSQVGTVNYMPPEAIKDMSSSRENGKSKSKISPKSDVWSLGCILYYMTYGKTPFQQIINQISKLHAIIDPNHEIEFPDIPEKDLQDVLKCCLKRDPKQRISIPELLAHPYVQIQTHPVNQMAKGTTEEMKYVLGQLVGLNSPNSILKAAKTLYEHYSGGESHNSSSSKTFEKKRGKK
In short: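 Activity detected by indirect ELISA after compounds sat with full-length GST-TTK for 5 min prior to starting the reaction with ATP. IC50 came from a four-parameter logistic curve of % inhibition, calculated against background and uninhibited control wells.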

[4] = system: Ovarian 2393A tumor initiating cells; assay: Tumor-initiating cell growth inhibition, Alamar Blue assay, ovarian TICs; format: cell-based; conditions: 144 h; Table 1; ovarian TICs, 6 days, Alamar Blue; read-out: Tumor Initiating Cell GI50 Range Ovarian 2393A
In short: (§5)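 Colon TICs (4,000/well, non-TC plates) and ovarian TICs (1,000/well, TC plates) kept in serum-free DMEM:F12 with B-27, heparin, bFGF and EGF. Compound added after 24 h at 0.1% DMSO, then 9 days (colon) or 6 days (ovarian) at 37° C. GI50 from Alamar Blue fluorescence (ex 544/em 590) after 4 h.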

[5] = system: Colon 12 tumor initiating cells; assay: Tumor-initiating cell growth inhibition, Alamar Blue assay, colon TICs; format: cell-based; conditions: 216 h; Table 1; colon TICs, 9 days, Alamar Blue; read-out: Tumor Initiating Cell GI50 Range Colon 12
In short: as §5

[6] = system: breast cancer cells (MDA-MB-231); assay: Cancer cell line growth inhibition, Sulforhodamine B assay, MDA-MB-231; format: cell-based; conditions: Homo sapiens, 120 h; Table 2; MDA-MB-231, 5 days, SRB; read-out: Cancer Cell Line GI50 Range MDA-MB-231
Procedure: as §1, §2, §3, §4

GI50 ([1]; Table 1) [nM] | GI50 [2] [nM] | GI50 ([3]; Table 1) [nM] | IC50 (human TTK; Table 1) [nM] | GI50 [4] [nM] | GI50 [5] [nM] | GI50 ([1]; Table 2) [nM] | GI50 ([3]; Table 2) [nM] | GI50 [6] [nM] | IC50 (human TTK; Table 2) [nM] | SMILES
 |  |  |  |  |  | 100 to 500 | 100 to 500 | > 500 | < 100 | Cc1cc(-c2cnn3c(NCC4CCOCC4)cc(NCC(C)(C)O)nc23)ccc1C(=O)NC1CC1 [Example B10, N-cyclopropyl-4-(5-((2-hydroxy-2-methylpropyl)amino)-7-(((tetrahydro-2H-pyran-4-yl)methyl)amino)pyrazolo[1,5-a]pyrimidin-3-yl)-2-methylbenzamide]
 |  |  |  |  |  | 100 to 500 | 100 to 500 | 100 to 500 | < 100 | Cc1cc(-c2cnn3c(NCC4CCOCC4)cc(N4CCOCC4)nc23)ccc1C(=O)NC1CC1 [Example B11, N-cyclopropyl-2-methyl-4-(5-morpholino-7-(((tetrahydro-2H-pyran-4-yl)methyl)amino)pyrazolo[1,5-a]pyrimidin-3-yl)benzamide]
 |  |  |  |  |  | ≤ 100 | ≤ 100 | 100 to 500 | < 100 | Cc1cc(-c2cnn3c(NCC4CCOCC4)cc(OC4CCCC4)nc23)ccc1C(=O)NC1CC1 [Example B21, 4-(5-(cyclopentyloxy)-7-(((tetrahydro-2H-pyran-4-yl)methyl)amino)pyrazolo[1,5-a]pyrimidin-3-yl)-N-cyclopropyl-2-methylbenzamide]
 |  |  |  |  |  | ≤ 100 | ≤ 100 | ≤ 100 | < 100 | Cc1cc(-c2cnn3c(NCCC4CCOCC4)cc(Oc4cccnc4)nc23)ccc1C(=O)NC1CC1 [Example B22, N-cyclopropyl-2-methyl-4-(5-(pyridin-3-yloxy)-7-((2-(tetrahydro-2H-pyran-4-yl)ethyl)amino)pyrazolo[1,5-a]pyrimidin-3-yl)benzamide]
 |  |  |  |  |  | 100 to 500 | 100 to 500 | 100 to 500 | < 100 | Cc1cc(-c2cnn3c(NCC4CCOCC4)cc(OC4CCCCC4)nc23)ccc1C(=O)NC1CC1 [Example B23, 4-(5-(cyclohexyloxy)-7-(((tetrahydro-2H-pyran-4-yl)methyl)amino)pyrazolo[1,5-a]pyrimidin-3-yl)-N-cyclopropyl-2-methylbenzamide]
 |  |  |  |  |  | ≤ 100 | ≤ 100 | ≤ 100 | < 100 | Cc1cc(-c2cnn3c(NCC4CCOCC4)cc(NC4CCCCC4)nc23)ccc1C(=O)NC1CC1 [Example B24, 4-(5-(cyclohexylamino)-7-(((tetrahydro-2H-pyran-4-yl)methyl)amino)pyrazolo[1,5-a]pyrimidin-3-yl)-N-cyclopropyl-2-methylbenzamide]
 |  |  |  |  |  | ≤ 100 | ≤ 100 | ≤ 100 | < 100 | Cc1cc(-c2cnn3c(NCC(C)C)cc(Oc4cccnc4)nc23)ccc1C(=O)NC1CC1 [Example B25, N-cyclopropyl-4-(7-(isobutylamino)-5-(pyridin-3-yloxy)pyrazolo[1,5-a]pyrimidin-3-yl)-2-methylbenzamide]

The next lines start with the molecule.

SMILES | GI50 ([1]; Table 1) [nM] | GI50 [2] [nM] | GI50 ([3]; Table 1) [nM] | IC50 (human TTK; Table 1) [nM] | GI50 [4] [nM] | GI50 [5] [nM] | GI50 ([1]; Table 2) [nM] | GI50 ([3]; Table 2) [nM] | GI50 [6] [nM] | IC50 (human TTK; Table 2) [nM]
O=C(NC1CC1)c1ccc(-c2cnn3c(NCC4CCOCC4)nc(OC4CCCC4)nc23)cc1Cl [Example A5, 2-chloro-4-(2-(cyclopentyloxy)-4-(((tetrahydro-2H-pyran-4-yl)methyl)amino)pyrazolo[1,5-a][1,3,5]triazin-8-yl)-N-cyclopropylbenzamide] | 100 to 500 | > 500 | 100 to 500 | < 100 | > 500 | 100 to 500 |  |  |  | 
O=C(NC1CC1)c1ccc(-c2cnn3c(NCC4CCOCC4)nc(N4CCOCC4)nc23)cc1Cl [Example A6, 2-chloro-N-cyclopropyl-4-(2-morpholino-4-(((tetrahydro-2H-pyran-4-yl)methyl)amino)pyrazolo[1,5-a][1,3,5]triazin-8-yl)benzamide] | ≤ 100 | > 500 | 100 to 500 | < 100 | 100 to 500 | 100 to 500 |  |  |  | 
O=C(NC1CC1)c1ccc(-c2cnn3c(NCCN4CCOCC4)nc(Oc4ccccc4)nc23)cc1 [Example A7, N-cyclopropyl-4-(4-((2-morpholinoethyl)amino)-2-phenoxypyrazolo[1,5-a][1,3,5]triazin-8-yl)benzamide] | 100 to 500 | > 500 | > 500 | < 100 | > 500 | > 500 |  |  |  | 
O=C(NC1CC1)c1ccc(-c2cnn3c(NCC4CCOCC4)nc(OC4CCOCC4)nc23)cc1Cl [Example A14, 2-chloro-N-cyclopropyl-4-(4-(((tetrahydro-2H-pyran-4-yl)methyl)amino)-2-((tetrahydro-2H-pyran-4-yl)oxy)pyrazolo[1,5-a][1,3,5]triazin-8-yl)benzamide] | 100 to 500 | > 500 | 100 to 500 | < 100 | > 500 | > 500 |  |  |  | 
O=C(NC1CC1)c1ccc(-c2cnn3c(NCC4CCOCC4)nc(NC4CCCC4)nc23)cc1 [Example A15, 4-(2-(cyclopentylamino)-4-(((tetrahydro-2H-pyran-4-yl)methyl)amino)pyrazolo[1,5-a][1,3,5]triazin-8-yl)-N-cyclopropylbenzamide] | 100 to 500 | > 500 | 100 to 500 | < 100 | 100 to 500 | 100 to 500 |  |  |  | 
